Experimental data as given in patent publication US20080021038A1, “Novel Piperidine/8-Azabicyclo [3.2.1.] Octan Derivatives As Modulators Of Chemokine Receptor Ccr5” (priority 2004, published 2008).

The compounds below were run against recombinant human CCR5 receptor (Homo sapiens, UniProt P51681) (assay: MIP-1α radioligand binding assay (scintillation proximity)). Details: displacement of 0.1 nM iodinated MIP-1α; membranes from Chinese hamster ovary cells expressing recombinant human CCR5; average if tested more than once.
Chain of recombinant human CCR5 receptor (P51681 whole entry): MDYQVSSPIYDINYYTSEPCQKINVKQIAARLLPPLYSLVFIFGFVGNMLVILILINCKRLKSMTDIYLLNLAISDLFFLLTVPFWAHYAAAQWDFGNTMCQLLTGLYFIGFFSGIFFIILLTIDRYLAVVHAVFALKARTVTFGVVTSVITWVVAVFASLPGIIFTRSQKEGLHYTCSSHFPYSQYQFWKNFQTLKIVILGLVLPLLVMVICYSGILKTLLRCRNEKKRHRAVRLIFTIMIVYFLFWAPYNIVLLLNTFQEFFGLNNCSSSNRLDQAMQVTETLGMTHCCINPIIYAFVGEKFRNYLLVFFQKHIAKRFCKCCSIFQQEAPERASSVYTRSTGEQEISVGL
Method: The ability of compounds to inhibit the binding of MIP-1α was assessed by an in vitro radioligand binding assay. Membranes were prepared from Chinese hamster ovary cells which expressed the recombinant human CCR5 receptor. These membranes were incubated with 0.1 nM iodinated MIP-1α, scintillation proximity beads and various concentrations of the compounds of the invention in 96-well plates. The amount of iodinated MIP-1α bound to the receptor was determined by scintillation counting. Competition curves were obtained for compounds and the concentration of compound which displaced 50% of bound iodinated MIP-1α was calculated (IC50).
In Table X the results are presented as Pic50 values. A Pic50 value is the negative log (to base 10) of the IC50 result, so an IC50 of 1 μM (that is 1×10^−6M) gives a Pic50 of 6. If a compound was tested more than once then the data below is an average of the probative tests results.

IC50 | SMILES
0.251 nM | CC1(CCS(=O)(=O)c2ccc(S(C)(=O)=O)cc2)CCN(CC[C@H](c2ccc(S(C)(=O)=O)cc2)c2cc(F)cc(F)c2)CC1 [Table I Compound 1, 1-{(3R)-3-(3,5-difluorophenyl)-3-[4-(methylsulfonyl)phenyl]propyl}-4-methyl-4-(2-{[4-(methylsulfonyl)phenyl]sulfonyl}ethyl)piperidine]
0.631 nM | CC1(CCS(=O)(=O)c2ccc(S(C)(=O)=O)cc2)CCN(CC[C@@H](c2ccccc2)N2CCN(S(C)(=O)=O)CC2)CC1 [Table II Compound 18, 1-{(1S)-3-[4-methyl-4-(2-{[4-(methylsulfonyl)phenyl]sulfonyl}ethyl)piperidin-1-yl]-11-phenylpropyl)-4-(methylsulfonyl)piperazine]
2 nM | CC1(CCS(=O)(=O)c2ccc(S(C)(=O)=O)cc2)CCN(CC[C@@H](c2cc(F)cc(F)c2)N2CCN(S(C)(=O)=O)CC2)CC1 [Table II Compound 19, 1-{(1S)-1-(3,5-difluorophenyl)-3-[4-methyl-4-(2-{[4-(methylsulfonyl)phenyl]sulfonyl}ethyl)piperidin-1-yl]propyl}-4-(methylsulfonyl)piperazine]
5.01 nM | COc1ccc(S(=O)(=O)CCC2(C)CCN(CC[C@@H](c3cc(F)cc(F)c3)N3CCN(S(C)(=O)=O)CC3)CC2)cc1 [Table II Compound 20, 1-[(1S)-1-(3,5-difluorophenyl)-3-(4-{2-[(4-methoxyphenyl)sulfonyl]ethyl}-4-methylpiperidin-1-yl)propyl]-4-(methylsulfonyl)piperazine]
7.94 nM | CC1(CCS(=O)(=O)C2CCN(C(=O)OCc3ccccc3)CC2)CCN(CC[C@@H](c2cc(F)cc(F)c2)C2CCN(S(C)(=O)=O)CC2)CC1 [Table VIII Compound 1, benzyl 4-{[2-(1-{(3R)-3-(3,5-difluorophenyl)-3-[1-(methylsulfonyl)piperidin-4-yl]propyl}-4-methylpiperidin-4-yl)ethyl]sulfonyl}piperidine-1-carboxylate]
2 nM | CC1(CCS(=O)(=O)C2CCN(S(C)(=O)=O)CC2)CCN(CC[C@@H](c2cc(F)cc(F)c2)C2CCN(S(C)(=O)=O)CC2)CC1 [Table VIII Compound 2, 1-{(3R)-3-(3,5-difluorophenyl)-3-[1-(methylsulfonyl)piperidin-4-yl]propyl}-4-methyl-4-(2-{[1-(methylsulfonyl)piperidin-4-yl]sulfonyl}ethyl)piperidine]
